These results are taken from patent publication US9918991B2, “Topical antimicrobial compositions and methods of using same” (Hydromer, Inc., priority 2010, dated 2018).

Assay [1] has as its system bacteria. Briefly: Bacteria growth inhibition on the hoof (Test Method MCR 3.0 with actual hoof material). The class given is cell-based. The settings on record: aqueous solution 0.25 to 0.5%. The text has this:
(§1) Comparative Antimicrobial Testing of Example 4 with Cosmetic Dyes According to Test Method MCR 3.0 with Actual Hoof Material

Another assay has as its system fungi. Briefly: Fungi growth inhibition on the hoof (Test Method MCR 3.0 with actual hoof material). In kind it is cell-based. The settings on record: aqueous solution 0.25 to 0.5%.
Text: as §1

Assay [2] is described as follows: Influence of hoof bath contamination by dirt and manure on effectiveness.
In assay [3] the test system is Arcanobacterium pyogenes (ATCC#9731 and ATCC#19411). Briefly: MIC Test against Arcanobacterium pyogenes under anaerobic conditions (TOXIKON). The class given is cell-based. The procedure: MIC Test of example 4 against Arcanobacterium pyogenes (ATCC#9731 and ATCC#19411) under anaerobic conditions were conducted by the TOXIKON.
Under the same conditions as mentioned in Example 5 conducted by TOXIKON the MIC of a 10% copper sulfate solution (commonly used in hoof baths worldwide) was determined.

Another assay has as its system T. mentagrophytes. Kind of assay: Hoof samples submerged, washed to simulate leaching, overlaid with T. mentagrophytes agar. The class given is cell-based. The settings on record: 10 wt. % solution; hoof submerged 15 seconds, washed two hours, 3 and 6 days. The procedure: Hoof samples were submerged for 15 seconds in (1) the composition of the invention (i.e., 4:1 of cosmetic dye:Phenoxyethanol, total amount about 0.3 wt. %); (2.1) a 10 wt. % copper sulfate (2.2) a 10 wt. % zinc sulfate solution; (3) untreated as a control. The samples were then washed for two hours to simulate leaching. The samples were then placed into melted PA agar to solidify. Melted agar containing 10E5 CFU/ml of T. mentagrophytes was then added and incubated at room temperature for 3 and 6 days.
Hoof samples were submerged for 15 seconds in (1) the composition of the invention (i.e., 4:1 of antimicrobial dye:Phenoxyethanol, total amount about 0.21 wt. % or 0.3 wt. %); (2) a 10 wt. % copper sulfate or 10 wt. % zinc sulfate solution; or (3) untreated as a control. The samples were then washed for two hours to simulate leaching. The samples were then placed into melted PA agar to solidify. Melted agar containing 10E5 CFU/ml of T. mentagrophytes was then added and incubated at room temperature for 3 and 6 days.

Assay [4] relates to bacteria. Kind of assay: Growth / inhibition activity on a hoof surface. The class given is cell-based. As to conditions: 0.2% alone.
In assay [5] the test system is digital dermatitis lesion (DDL). Kind of assay: Footbath study in a large commercial dairy farm, digital dermatitis lesions. The class given is in vivo, cows. The settings on record: study 1; 5% solution, twice weekly; mixed logistic regression.
Protocol: The study was conducted in a large commercial dairy farm. […] The adjusted odds of digital dermatitis lesion (DDL) throughout the study period were analyzed by mixed logistic regression model.

In the case of `CN(C)c1ccc2nc3ccc(=[N+](C)C)cc-3sc2c1` [Methylene Blue], in the assay with bacteria [1], the “bacteria growth inhibition on the hoof” value was determined as 60%. Further, the “fungi growth inhibition on the hoof” value in the assay with fungi came to 50%.

As for benzalkonium chloride, the “loses effectiveness after contamination” value in assay [2] (at 1% concentration, FIG. 4) is no more than 24 h.

Turning to `O=S(=O)([O-])[O-].[Cu+2]` [copper sulfate], the “MIC (concentration giving about 100% reduction / kill)” value in assay [3] (anaerobic conditions, both strains) is on record as “at least 0.078%”. In assay [3] (concentration at least 0.078%, both strains), this molecule yielded a kill rate of roughly 100%. The “required concentration in comparison to a solution according to example 4” value in assay [3] (to control Arcanobacterium pyogenes) is reported as “at least 8 times”. Also, the “loses effectiveness after contamination” value in assay [2] (at 2.5% and 5% concentrations, FIG. 1) was no more than 4 h. The microbial growth result in the assay on T. mentagrophytes is “intense microbial growth”.

`Cc1cc2nc3ccc(N(C)C)cc3[s+]c2cc1N.[Cl-]` [Toluidine Blue]: the “growth on a hoof surface” value in the assay on bacteria [4] is listed as “bacterial growth”. Moreover, the “bacteria growth inhibition on the hoof” value in the assay on bacteria [1] is reported as 80%. Moreover, the “fungi growth inhibition on the hoof” value in the assay with fungi was found to be 50%.

As to `O=CCCCC=O` [glutaraldehyde], the “loses effectiveness after contamination” value in assay [2] (at 2% concentration, FIG. 3) was no more than 24 h.

Consider `CN(C)c1ccc(C(=C2C=CC(=[N+](C)C)C=C2)c2ccc(N(C)C)cc2)cc1.[Cl-]` [Gentian Violet, N-[4[Bis[4-(dimethylamino)-phenyl]methylene]-2,5-cyclohexadien-1-ylidene]-N-methyl-methanaminium chloride], for which, in the assay with bacteria [1], the “bacteria growth inhibition on the hoof” value turned out to be 90%. In the assay on fungi, the “fungi growth inhibition on the hoof” value amounted to 80%.

`O=S(=O)([O-])[O-].[Zn+2]` [zinc sulfate]: in the assay with T. mentagrophytes, the microbial growth entry was “intense microbial growth”.

Take `C=O` [formalin]: in assay [5], the “odds of DDL compared with the Dragonhyde group” value worked out at 1.36 times higher.
